Publication PMC11742723, “The clinical-stage drug BTZ-043 accumulates in murine tuberculosis lesions and efficiently acts against Mycobacterium tuberculosis” (Nature Communications, 2025)

System: Mtb
Type: cell-based, Mycobacterium tuberculosis

With C[C@H]1COC2(CCN(c3nc(=O)c4cc(C(F)(F)F)cc([N+](=O)[O-])c4s3)CC2)O1 [BTZ-043] the “effect on mycobacterial growth on agar containing BTZ-043” value (1 ng/mL BTZ-043, bacteria from BTZ-043 treated BALB/c mice, untreated mice and H37Rv) was “did not restrict mycobacterial viability”, the “growth of Mtb from drug treated IL-13tg mice on agar containing BTZ-043” value (5 or 10 ng/mL BTZ-043, IL-13tg mice 250 mg/kg/day 10 days) was “did not grow” and the “mycobacterial growth on agar containing BTZ-043” value (5 or 10 ng/mL BTZ-043, bacteria from BTZ-043 treated BALB/c mice, untreated mice and H37Rv) was “No growth”.
